Measured values as given in ChEMBL document CHEMBL1201862, “PubChem BioAssay data set” (2004).
Calls of active or inactive are those of the source.

Key:
[1] = system: Streptococcus sp. 'group A'; assay: Streptococcus pyogenes SK(-)GAS viability under kanamycin – luminescence, BacTiterGlo, confirmation, counter-screen for streptokinase expression inhibitor project, dose response (AID 1900); type: functional, organism-based
Streptococcus = assay: GAS UMAA2166 growth inhibition – luminescence, BacTiterGlo, counter-screen for streptokinase expression inhibitor project, dose response (AID 1915); type: functional, organism-based; conditions: read-out: EC50;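 further: potency for reduction of bacterial viability or growth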
[2] = target: T1, Sentrin-specific protease 8 (Homo sapiens, UniProt Q96LD8); type: functional;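 further: luminescence read-out of SENP8 inhibition, dose-response confirmation following an ultra-high-throughput screen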
T1 sequence (Q96LD8 whole entry): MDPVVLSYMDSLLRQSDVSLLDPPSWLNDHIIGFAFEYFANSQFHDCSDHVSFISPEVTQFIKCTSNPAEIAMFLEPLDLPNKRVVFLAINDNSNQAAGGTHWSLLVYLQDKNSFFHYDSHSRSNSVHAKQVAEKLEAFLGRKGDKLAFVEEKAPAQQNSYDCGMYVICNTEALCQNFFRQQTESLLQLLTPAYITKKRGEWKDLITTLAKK

INS1 = assay: INS-1E survival protection against cytokine death – cell-based, luminescence, retest, dose response (AID 449756); type: functional; conditions: Rattus norvegicus;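 further: cell death triggered by IL-1 beta plus TNF-alpha plus IFN-gamma mixture; protective hits raise ATP signal compared with cytokine alone wells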
[3] = target: T2, Apoptotic protease-activating factor 1 (Homo sapiens, UniProt O14727); type: functional
T2 sequence (O14727 whole entry): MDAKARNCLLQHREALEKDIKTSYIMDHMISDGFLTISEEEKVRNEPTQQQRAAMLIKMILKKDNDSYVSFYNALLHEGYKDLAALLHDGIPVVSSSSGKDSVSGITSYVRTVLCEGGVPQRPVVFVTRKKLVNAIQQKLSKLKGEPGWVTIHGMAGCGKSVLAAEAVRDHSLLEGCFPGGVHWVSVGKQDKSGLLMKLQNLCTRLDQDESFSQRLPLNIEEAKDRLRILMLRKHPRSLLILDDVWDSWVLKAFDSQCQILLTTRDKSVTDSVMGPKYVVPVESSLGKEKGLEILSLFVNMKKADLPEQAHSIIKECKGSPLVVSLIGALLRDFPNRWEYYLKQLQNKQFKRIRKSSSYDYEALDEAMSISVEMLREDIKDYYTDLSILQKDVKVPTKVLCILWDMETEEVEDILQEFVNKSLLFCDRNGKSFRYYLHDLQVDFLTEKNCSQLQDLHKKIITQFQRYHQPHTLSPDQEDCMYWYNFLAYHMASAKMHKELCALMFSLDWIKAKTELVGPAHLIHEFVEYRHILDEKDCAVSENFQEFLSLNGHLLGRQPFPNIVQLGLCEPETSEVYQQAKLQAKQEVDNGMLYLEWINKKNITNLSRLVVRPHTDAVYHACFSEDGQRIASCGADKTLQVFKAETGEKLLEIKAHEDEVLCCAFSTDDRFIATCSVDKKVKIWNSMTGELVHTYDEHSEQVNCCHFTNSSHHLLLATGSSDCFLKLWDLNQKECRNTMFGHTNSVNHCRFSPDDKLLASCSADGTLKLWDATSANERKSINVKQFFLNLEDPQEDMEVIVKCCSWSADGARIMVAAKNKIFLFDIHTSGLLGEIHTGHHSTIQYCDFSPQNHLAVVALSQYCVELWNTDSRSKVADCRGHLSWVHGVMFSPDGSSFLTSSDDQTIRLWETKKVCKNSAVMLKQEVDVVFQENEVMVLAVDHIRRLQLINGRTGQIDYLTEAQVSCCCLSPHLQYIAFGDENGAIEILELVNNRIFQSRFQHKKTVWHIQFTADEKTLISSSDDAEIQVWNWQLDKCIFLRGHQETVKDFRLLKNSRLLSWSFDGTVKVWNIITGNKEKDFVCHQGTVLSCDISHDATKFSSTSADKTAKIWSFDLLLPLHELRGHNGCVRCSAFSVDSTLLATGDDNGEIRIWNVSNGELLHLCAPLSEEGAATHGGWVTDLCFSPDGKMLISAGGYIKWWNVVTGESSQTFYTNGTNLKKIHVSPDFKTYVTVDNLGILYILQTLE

[4] = target: Dual specificity protein kinase CLK2 (Homo sapiens, UniProt P49760); type: functional
[5] = target: Serine/threonine-protein kinase D3 (Homo sapiens, UniProt O94806); type: functional;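 further: determined within a kinase panel screen, with PRKCN as the panel member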
Aurora kinase A = target: T3, Aurora kinase A (Homo sapiens, UniProt O14965); type: functional;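 further: value from the Navigating the Kinome kinase panel profiling, panel entry STK6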
T3 sequence (O14965 whole entry): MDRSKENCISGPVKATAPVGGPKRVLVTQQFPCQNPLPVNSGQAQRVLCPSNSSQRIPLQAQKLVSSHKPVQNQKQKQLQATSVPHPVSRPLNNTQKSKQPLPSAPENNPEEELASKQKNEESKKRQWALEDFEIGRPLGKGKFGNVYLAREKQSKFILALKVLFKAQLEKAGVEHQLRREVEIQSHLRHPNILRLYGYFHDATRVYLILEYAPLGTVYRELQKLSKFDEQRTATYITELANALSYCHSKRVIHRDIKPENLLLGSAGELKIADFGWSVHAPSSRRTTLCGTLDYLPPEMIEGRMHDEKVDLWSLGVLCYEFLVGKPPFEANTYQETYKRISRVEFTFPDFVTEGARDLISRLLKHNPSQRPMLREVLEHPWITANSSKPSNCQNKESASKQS

[6] = target: Serine/threonine-protein kinase PAK 4 (Homo sapiens, UniProt O96013); type: functional;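 further: value obtained within a kinome profiling panel in which PAK4 was one of the panel members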
[7] = target: Tyrosine-protein kinase JAK3 (Homo sapiens, UniProt P52333); type: functional
[8] = target: Serine/threonine-protein kinase TAO1 (Homo sapiens, UniProt Q7L7X3); type: functional
[9] = target: MAP/microtubule affinity-regulating kinase 3 (Homo sapiens, UniProt P27448); type: functional;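 further: MARK3 affinity measured as one member of a kinome panel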
[10] = target: Mitogen-activated protein kinase kinase kinase kinase 2 (Homo sapiens, UniProt Q12851); type: functional;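 further: measured as one member of a kinome-wide kinase panel, with MAP4K2 as the panel entry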
[11] = target: Vascular endothelial growth factor receptor 2 (Homo sapiens, UniProt P35968); type: functional
[12] = target: Insulin-like growth factor 1 receptor (Homo sapiens, UniProt P08069); assay: Navigating the Kinome. Panel member name: IGF1R; type: functional
[13] = target: Tyrosine-protein kinase Fyn (Homo sapiens, UniProt P06241); type: functional
[14] = target: cAMP-dependent protein kinase catalytic subunit alpha (Homo sapiens, UniProt P17612); type: functional
[15] = target: Mitogen-activated protein kinase kinase kinase kinase 4 (Homo sapiens, UniProt O95819); type: functional
Mitogen-activated protein kinase kinase kinase kinase 4, sequence (O95819 whole entry): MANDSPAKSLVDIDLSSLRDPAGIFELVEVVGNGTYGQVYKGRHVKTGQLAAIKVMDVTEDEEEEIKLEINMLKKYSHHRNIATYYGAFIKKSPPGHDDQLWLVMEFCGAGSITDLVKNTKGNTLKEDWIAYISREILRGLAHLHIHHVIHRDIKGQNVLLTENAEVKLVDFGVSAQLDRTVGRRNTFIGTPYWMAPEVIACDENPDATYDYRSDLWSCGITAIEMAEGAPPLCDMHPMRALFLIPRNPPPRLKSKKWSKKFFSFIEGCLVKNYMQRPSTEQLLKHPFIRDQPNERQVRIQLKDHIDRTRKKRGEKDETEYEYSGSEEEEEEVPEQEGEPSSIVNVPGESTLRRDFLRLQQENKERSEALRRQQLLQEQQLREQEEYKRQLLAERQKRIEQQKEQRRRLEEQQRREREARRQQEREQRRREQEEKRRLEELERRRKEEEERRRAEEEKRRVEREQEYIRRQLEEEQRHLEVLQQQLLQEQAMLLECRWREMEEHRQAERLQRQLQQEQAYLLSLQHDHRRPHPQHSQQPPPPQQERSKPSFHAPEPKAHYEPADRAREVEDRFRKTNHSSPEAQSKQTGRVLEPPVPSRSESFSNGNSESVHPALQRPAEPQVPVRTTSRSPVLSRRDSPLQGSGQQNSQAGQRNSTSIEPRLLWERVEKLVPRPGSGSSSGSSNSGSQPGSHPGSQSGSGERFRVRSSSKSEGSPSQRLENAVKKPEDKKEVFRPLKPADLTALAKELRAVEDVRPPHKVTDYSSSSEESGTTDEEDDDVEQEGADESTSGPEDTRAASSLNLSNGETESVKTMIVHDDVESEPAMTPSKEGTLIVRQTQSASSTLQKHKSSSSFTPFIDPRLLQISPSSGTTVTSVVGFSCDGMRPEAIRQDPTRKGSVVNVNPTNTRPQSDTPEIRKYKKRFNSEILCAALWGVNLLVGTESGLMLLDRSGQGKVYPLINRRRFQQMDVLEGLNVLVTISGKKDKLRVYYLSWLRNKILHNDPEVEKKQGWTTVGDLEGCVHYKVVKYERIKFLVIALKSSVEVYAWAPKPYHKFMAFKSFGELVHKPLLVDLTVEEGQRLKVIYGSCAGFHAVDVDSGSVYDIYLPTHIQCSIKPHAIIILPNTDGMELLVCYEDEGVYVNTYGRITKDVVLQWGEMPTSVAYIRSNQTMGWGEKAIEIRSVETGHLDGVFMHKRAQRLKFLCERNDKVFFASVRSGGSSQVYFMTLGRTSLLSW

Serine/threonine-protein kinase PAK 4, sequence (O96013 whole entry): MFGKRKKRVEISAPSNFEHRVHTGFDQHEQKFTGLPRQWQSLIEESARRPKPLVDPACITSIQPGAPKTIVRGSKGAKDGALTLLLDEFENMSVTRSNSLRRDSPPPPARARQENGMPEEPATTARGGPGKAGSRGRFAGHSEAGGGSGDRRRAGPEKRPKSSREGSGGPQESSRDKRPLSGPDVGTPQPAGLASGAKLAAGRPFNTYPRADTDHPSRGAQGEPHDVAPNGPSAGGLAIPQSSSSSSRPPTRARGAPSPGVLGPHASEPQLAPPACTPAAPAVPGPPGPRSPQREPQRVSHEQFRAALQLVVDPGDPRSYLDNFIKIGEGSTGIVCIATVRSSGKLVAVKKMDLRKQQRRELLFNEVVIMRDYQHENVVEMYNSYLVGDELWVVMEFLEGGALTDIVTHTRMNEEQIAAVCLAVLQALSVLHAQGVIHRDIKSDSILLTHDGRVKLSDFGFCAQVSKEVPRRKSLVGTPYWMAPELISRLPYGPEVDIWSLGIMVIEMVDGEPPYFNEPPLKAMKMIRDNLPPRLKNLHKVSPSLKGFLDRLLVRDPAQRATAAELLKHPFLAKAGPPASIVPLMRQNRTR
Insulin-like growth factor 1 receptor, sequence (P08069 31-736 limits assumed): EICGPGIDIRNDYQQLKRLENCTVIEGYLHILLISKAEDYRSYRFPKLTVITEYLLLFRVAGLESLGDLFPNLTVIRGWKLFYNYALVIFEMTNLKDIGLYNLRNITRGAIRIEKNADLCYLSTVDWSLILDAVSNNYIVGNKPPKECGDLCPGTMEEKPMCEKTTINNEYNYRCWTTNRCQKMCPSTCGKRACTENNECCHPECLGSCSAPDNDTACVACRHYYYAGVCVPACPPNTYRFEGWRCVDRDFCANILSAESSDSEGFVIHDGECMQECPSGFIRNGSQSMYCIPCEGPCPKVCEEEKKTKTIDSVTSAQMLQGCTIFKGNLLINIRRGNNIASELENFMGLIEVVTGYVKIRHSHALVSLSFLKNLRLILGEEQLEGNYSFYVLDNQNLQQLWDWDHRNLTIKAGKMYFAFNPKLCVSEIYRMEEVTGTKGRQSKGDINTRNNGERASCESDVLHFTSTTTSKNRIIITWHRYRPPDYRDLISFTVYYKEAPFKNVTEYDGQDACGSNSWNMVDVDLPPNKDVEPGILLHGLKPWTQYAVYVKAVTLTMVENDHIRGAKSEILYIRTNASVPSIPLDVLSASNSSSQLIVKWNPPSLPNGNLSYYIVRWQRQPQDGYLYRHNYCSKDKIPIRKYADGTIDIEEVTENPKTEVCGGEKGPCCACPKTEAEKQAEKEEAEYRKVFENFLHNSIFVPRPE
Insulin-like growth factor 1 receptor, sequence (P08069 741-1367 limits assumed): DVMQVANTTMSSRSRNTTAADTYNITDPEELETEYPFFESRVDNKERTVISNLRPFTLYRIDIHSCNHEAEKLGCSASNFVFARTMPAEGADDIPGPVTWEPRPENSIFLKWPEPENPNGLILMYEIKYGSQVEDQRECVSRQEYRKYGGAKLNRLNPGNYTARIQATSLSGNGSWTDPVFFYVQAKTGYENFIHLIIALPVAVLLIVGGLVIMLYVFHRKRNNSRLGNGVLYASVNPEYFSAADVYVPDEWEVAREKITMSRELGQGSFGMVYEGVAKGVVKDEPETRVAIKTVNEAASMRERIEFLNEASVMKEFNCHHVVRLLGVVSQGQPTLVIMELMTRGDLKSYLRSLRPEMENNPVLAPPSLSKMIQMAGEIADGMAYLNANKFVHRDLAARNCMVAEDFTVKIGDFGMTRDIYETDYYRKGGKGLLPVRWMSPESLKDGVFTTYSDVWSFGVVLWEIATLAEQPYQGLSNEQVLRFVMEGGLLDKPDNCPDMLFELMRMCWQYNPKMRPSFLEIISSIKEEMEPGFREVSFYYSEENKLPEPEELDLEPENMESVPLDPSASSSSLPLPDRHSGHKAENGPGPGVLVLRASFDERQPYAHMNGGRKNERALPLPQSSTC
Serine/threonine-protein kinase D3, sequence (O94806 whole entry): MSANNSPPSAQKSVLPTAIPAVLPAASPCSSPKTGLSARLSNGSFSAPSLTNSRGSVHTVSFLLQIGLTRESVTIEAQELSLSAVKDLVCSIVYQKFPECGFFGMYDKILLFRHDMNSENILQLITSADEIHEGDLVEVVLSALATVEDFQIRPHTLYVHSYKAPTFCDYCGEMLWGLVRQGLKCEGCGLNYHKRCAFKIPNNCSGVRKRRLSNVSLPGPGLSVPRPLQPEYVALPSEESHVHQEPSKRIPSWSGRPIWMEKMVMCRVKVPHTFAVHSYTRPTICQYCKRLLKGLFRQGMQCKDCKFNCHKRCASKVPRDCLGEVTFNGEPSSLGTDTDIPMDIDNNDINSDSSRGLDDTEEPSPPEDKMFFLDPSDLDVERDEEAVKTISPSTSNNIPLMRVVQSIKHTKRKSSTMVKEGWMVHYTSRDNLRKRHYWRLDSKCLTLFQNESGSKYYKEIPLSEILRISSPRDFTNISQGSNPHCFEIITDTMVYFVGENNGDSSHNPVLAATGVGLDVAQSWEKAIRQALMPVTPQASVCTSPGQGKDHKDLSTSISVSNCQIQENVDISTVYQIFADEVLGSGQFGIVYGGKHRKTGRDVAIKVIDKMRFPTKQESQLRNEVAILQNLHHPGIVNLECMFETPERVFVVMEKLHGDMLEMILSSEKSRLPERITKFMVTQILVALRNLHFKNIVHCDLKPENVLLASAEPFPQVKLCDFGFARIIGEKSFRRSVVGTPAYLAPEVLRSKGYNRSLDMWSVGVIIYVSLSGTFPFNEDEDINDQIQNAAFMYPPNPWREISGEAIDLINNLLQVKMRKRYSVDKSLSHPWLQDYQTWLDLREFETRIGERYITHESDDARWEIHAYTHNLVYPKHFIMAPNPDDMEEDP
Mitogen-activated protein kinase kinase kinase kinase 2, sequence (Q12851 whole entry): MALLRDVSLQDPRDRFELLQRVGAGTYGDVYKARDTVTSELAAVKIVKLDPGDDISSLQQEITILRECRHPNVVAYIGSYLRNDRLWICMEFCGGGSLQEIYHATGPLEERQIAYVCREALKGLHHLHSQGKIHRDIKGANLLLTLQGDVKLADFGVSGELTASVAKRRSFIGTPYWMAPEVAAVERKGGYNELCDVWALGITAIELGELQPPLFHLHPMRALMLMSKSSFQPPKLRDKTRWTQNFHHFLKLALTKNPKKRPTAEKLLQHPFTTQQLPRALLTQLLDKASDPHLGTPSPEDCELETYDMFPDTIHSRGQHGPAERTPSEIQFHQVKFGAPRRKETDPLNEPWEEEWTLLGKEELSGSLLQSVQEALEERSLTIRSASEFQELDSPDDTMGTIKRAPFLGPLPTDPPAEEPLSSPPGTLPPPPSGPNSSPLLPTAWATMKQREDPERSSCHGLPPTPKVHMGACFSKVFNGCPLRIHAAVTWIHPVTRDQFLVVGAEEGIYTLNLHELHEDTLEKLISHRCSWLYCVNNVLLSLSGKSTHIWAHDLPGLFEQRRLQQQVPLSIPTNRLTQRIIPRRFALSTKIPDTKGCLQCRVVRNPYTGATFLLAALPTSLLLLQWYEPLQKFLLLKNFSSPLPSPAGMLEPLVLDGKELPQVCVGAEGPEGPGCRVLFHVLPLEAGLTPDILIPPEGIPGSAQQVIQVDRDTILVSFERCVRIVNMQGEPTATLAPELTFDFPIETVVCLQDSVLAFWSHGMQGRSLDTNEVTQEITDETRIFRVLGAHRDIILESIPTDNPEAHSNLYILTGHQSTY

SMILES | EC50 [1] | EC50 (Streptococcus) | IC50 [2] | AC50 (INS1) | IC50 [3] | Ki [4] | Ki [5] | Ki (Aurora kinase A) | Ki [6] | Ki [7] | Ki [8] | Ki [9] | Ki [10] | Ki [11] | Ki [12] | Ki [13] | Ki [14] | Ki [15]
Cc1cc(C)c[n+](C2=C([N-]S(=O)(=O)c3cccs3)C(=O)c3ccccc3C2=O)c1 | 941 nM (active) | 9570 nM (active) | 33400 nM (active) | 3120 nM (active) | – | – | – | – | – | – | – | – | – | – | – | – | – | –
CCCCCCCCCCC[N+](C)(C)CC/C=C1/c2ccccc2Sc2ccc(Cl)cc21 | 1460 nM (active) | 7230 nM (active) | – | – | 11600 nM (active) | – | – | – | – | – | – | – | – | – | – | – | – | –
CCn1c(-c2nonc2N)nc2cncc(C(=O)N3CCC(N)C3)c21 (stereo unspecified) | – | – | – | – | – | 1000 nM (active) | 631 nM (active) | > 1580 nM (inactive) | > 5010 nM (inactive) | > 5010 nM (inactive) | > 6310 nM (inactive) | 2000 nM (active) | > 2510 nM (inactive) | > 2000 nM (inactive) | > 2510 nM (inactive) | > 6310 nM (inactive) | 3.16 nM (active) | > 3160 nM (inactive)
Cc1[nH]nc2ccc(-c3cncc(OCC(N)Cc4c[nH]c5ccccc45)c3)cc12 (stereo unspecified) | – | – | – | – | – | 3.16 nM (active) | 5.01 nM (active) | > 1580 nM (inactive) | 1580 nM (active) | 316 nM (active) | > 10000 nM (inactive) | 398 nM (active) | 25.1 nM (active) | 3980 nM (active) | > 2000 nM (inactive) | > 794 nM (inactive) | 5.01 nM (active) | 50.1 nM (active)
COC(=O)c1ccccc1NC1=C/C(=N\S(=O)(=O)c2cccs2)c2ccccc2C1=O | – | – | 41200 nM (active) | 2190 nM (active) | 1820 nM (active) | – | – | – | – | – | – | – | – | – | – | – | – | –
